Like-named read-outs stand apart in the source and are kept apart here.
Key:
HepG2 cells [1] = test: CometChip imaging of cellular DNA damage; assay type: cell-based, human; conditions: HepG2, 10 µM, 1 week; as compared to isoniazid
Method: (§1) The human liver carcinoma cell line, HepG2, is highly differentiated and is often used to screen the cytotoxicity potential of new chemical entities early in drug development ([Gerets et al., 2012]). HepG2 cells were cultured in Dulbecco’s modified Eagle’s medium (DMEM) supplemented with 10% fetal bovine serum (FBS), 100 U/ml penicillin, 100 μg/ml streptomycin, and 2mM L-glutamine, unless otherwise stated. Cells were continuously incubated at 37°C in a humidified 5% CO2/95% air environment and plated in a 12-well plate at 4x10^5 cells/well, over a duration of 24 h prior to compound exposure. Compound stocks dissolved in water were freshly made each exposure day. Cellular supernatant was replaced with 2 ml of culture media containing 10 µM of compound and left to incubate until 90% confluency was reached. Cell passages were conducted every 3 days under continual exposure to the designated compound for the indicated time period. Cellular supernatant was collected at each passage, clarified, aliquoted, and stored at -80°C for future analysis. Treated cells and supernatants were then examined for markers of cytotoxicity, mitochondrial toxicity, and oxidative DNA damage as described below.
Cells treated for 1 week with 10 µM of compound were plated onto a CometChip (Trevigen) at 2x10^5 cells/ml in a single cell suspension ([Ge et al., 2014]). Cells were incubated on the chip for 60 min at 37°C. The plate was then gently washed with PBS and coated with 1% low melting agarose. After the agarose was solidified by cooling at 4°C, the plate was washed with pre-chilled non-activated alkaline lysis buffer (2.5 M NaCl, […] Na2EDTA, 10mM Tris, pH 10). The chip was lysed overnight at 4°C by submerging the chip in the alkaline lysis buffer containing 1% Triton-X. The plate was then washed with PBS and placed in an electrophoresis chamber filled with pre-chilled alkaline electrophoresis buffer (2mM Na2 EDTA, 300 mM NaOH). Following a 40 min incubation at 4°C to allow for alkaline unwinding, electrophoresis was carried out at 80 volts for 30 min at 4°C. […]

[2] = Clinical parent-metabolite pharmacokinetic study, plasma exposures after oral isoniazid; assay type: in vivo, human (TB patients); conditions: for AUC(0-t): human
Method: The parent-metabolite clinical pharmacokinetic study was approved by the Institutional Review Board of Rutgers University, Newark (protocol #20170001150). We performed intensive pharmacokinetic sampling for drug and metabolite concentrations in 10 TB patients (4 latent infection patients and 6 active TB patients) treated with isoniazid, in order to identify the relevant metabolite concentrations for subsequent pre-clinical experiments. After an overnight fast, patients were dosed with oral isoniazid (300 mg). A pre-dose blood draw was performed, with additional blood draws at 1, 2, 4, 6, and 8 h after dosing. Following centrifugation, plasma samples were stored at -80C until shipment to Alturas Analytics (Moscow, ID) for analysis. […] Noncompartmental pharmacokinetic analysis was performed to determine area under the concentration-versus-time curve (AUC), extrapolated over a 24-h dosing interval according to the slope defined in the elimination phase.

HepG2 cells [3] = test: ATP production (Mitochondrial ToxGlo Assay); assay type: cell-based, human; conditions: HepG2, 10 µM, 28 days of treatment
Method: The human liver carcinoma cell line, HepG2, is highly differentiated and is often used to screen the cytotoxicity potential of new chemical entities early in drug development ([Gerets et al., 2012]). HepG2 cells were cultured in Dulbecco’s modified Eagle’s medium (DMEM) supplemented with 10% fetal bovine serum (FBS), 100 U/ml penicillin, 100 μg/ml streptomycin, and 2mM L-glutamine, unless otherwise stated. Cells were continuously incubated at 37°C in a humidified 5% CO2/95% air environment and plated in a 12-well plate at 4x10^5 cells/well, over a duration of 24 h prior to compound exposure. Compound stocks dissolved in water were freshly made each exposure day. […]
Mitochondrial toxicity analysis was assayed using the Mitochondrial ToxGlo Assay (Promega, Madison, WI) following the manufacturer’s instructions. […] Following a 24-h incubation with compound, cytotoxicity was evaluated by the addition of a fluorogenic peptide substrate, bis-AAF-R110, to the cell supernatant for 30 min at 37°C. […] After the cells were allowed to incubate for 30 min at 37°C, fluorescence intensity was measured at 485nmEx/525nmEm. […] Cell lysis mixture was transferred to a 96-well flat solid white bottom plate and luminescence intensity was measured. Assays of fluorescence and luminescence activity were performed with a Synergy H1 Hybrid Multi-Mode Reader (BioTek, Winooski, VT).

HepG2 cells [4] = test: Mitochondrial membrane integrity (TMRM); assay type: cell-based, human; conditions: HepG2, 10 µM, 28 days of exposure
Method: as §1, with “Treated cells and supernatants were then examined for markers of cytotoxicity, mitochondrial toxicity, and oxidative DNA damage as described below.” left out
To assess mitochondrial membrane integrity, black 96-well polystyrene clear bottom plates were coated with 50 µg/ml of poly-d-lysine for 1 h at 37°C. […] Following three washes with PBS, fluorescent intensity at 488nmEx/570nmEm was measured on a Synergy H1 Hybrid Multi-Mode Reader (BioTek).

HepG2 cells [5] = test: 8-OHdG in cellular supernatant (competition ELISA); assay type: cell-based, human; conditions: HepG2, 10 µM, 28 days exposure
Method: as §1
Determination of 8-OHdG content in cellular supernatant was assed using an in-house competition ELISA. […] Absorbance at 405 nm was then measured on a Synergy H1 Hybrid Multi-Mode Reader (BioTek).

HepG2 cells [6] = test: Immunofluorescence for γ-H2AX; assay type: cell-based, human; conditions: HepG2, 10 µM, 1-week exposure period; compared among the four compounds
Method: as §1
H2Ax is a core histone protein found in the nucleosome, and the phosphorylation of H2Ax is a marker of DNA damage caused by ROS. […]

HepG2 cells [7] = test: Free thiol availability assay (ThiolTracker Violet), glutathione depletion; assay type: cell-based, human; conditions: HepG2, 10 µM, 28-day exposure period
Method: as §1, with “Cellular supernatant was collected at each passage, clarified, aliquoted, and stored at -80°C for future analysis. Treated cells and supernatants were then examined for markers of cytotoxicity, mitochondrial toxicity, and oxidative DNA damage as described below.” left out
By serving as targets of ROS, thiols provide the cellular defense system against oxidative stress. […] Cellular glutathione depletion was quantified in a free thiol availability assay ([Mandavilli and Janes, 2010]). […] Following a 30 min incubation at 37°C, cells were washed three times with D-PBS +C/M. Fluorescent intensity at 404nmEx/526nmEm was measured on a Synergy H1 Hybrid Multi-Mode Reader (BioTek).

HepG2 cells [8] = test: Cytotoxicity (bis-AAF-R110 substrate, Mitochondrial ToxGlo Assay), long-term exposure; assay type: cell-based, human; conditions: HepG2, 10 µM, up to 28 days exposure
[9] = Linear regression of urine oxidative DNA damage (8-OHdG) on isoniazid pharmacokinetic exposures in HIV/TB patients; assay type: in vivo, human (HIV/TB patients, Botswana)
Source text: We conducted a prospective cohort study of isoniazid pharmacokinetics among HIV/TB patients at 22 public clinics and Princess Marina Hospital in Gaborone, Botswana. The study population has been previously described ([Vinnard et al., 2017]). Eligibility criteria included citizens of Botswana, HIV infected adults (21 years of age or older) naïve to ART therapy, and newly diagnosed with pulmonary TB initiated on standard first-line TB regimens at weight-based dosing bands recommended in accordance with WHO guidelines. The study visit occurred between 5 and 28 days after initiation of first-line TB therapy that included isoniazid, prior to initiation of ART therapy.
After an overnight fast, the anti-TB drugs were directly administered. Blood samples (10 ml) were drawn at 0, 0.3, 0.9, 2.2, 4.5, and 8 h post-dosing, based on optimal sampling theory to estimate isoniazid pharmacokinetic parameters. Plasma isoniazid concentrations were measured with liquid chromatography-tandem mass spectrometry (LC-MS/MS) methods as previously described. The peak plasma concentration (Cmax) was obtained directly from the concentration-versus-time data), model-predicted isoniazid concentrations were used to estimate the area under the concentration-versus-time curve during a 24-h interval (AUC0-24). A spot urine sample (approximately 50 ml) was collected 4 h following anti-TB drug dosing and frozen at -80C until analysis. We measured urinary concentrations of 8-OHdG, a marker of oxidative DNA damage that is stable in cryopreserved urine samples, normalized to urine creatinine. The DNA Damage Competitive ELISA kit (ThermoFisher Scientific) was performed using a 1:4 dilution of urine-to-assay buffer. The manufacturer’s instructions were followed with one modification to the protocol. Antigen binding was performed overnight at 4°C with shaking in lieu of a 2-h incubation at room temperature. Each assay was performed in triplicate. Optical absorption was assessed using a Synergy H1 Hybrid Multimode Reader (BioTek). […]

[10] = 10 isoniazid-treated patients, oral isoniazid 300 mg, noncompartmental, extrapolated over 24-h dosing interval

CC(=O)NN [Acetylhydrazine]
DNA damage by CometChip microscopy (HepG2 cells [1]): greater levels of DNA damage | Observed median (range) of plasma AUC0-24 [2, 10]: 66.6 (43.2, 198.0) uM*hr

CC(=O)NNC(=O)c1ccncc1 [Acetylisoniazid]
DNA damage by CometChip microscopy (HepG2 cells [1]): greater levels of DNA damage | AUC(0-t) ([2]; in vivo, po, 300 mg): 158 µM·h

NN [Hydrazine]
Cellular ATP production impairment (HepG2 cells [3]): greatest impairment | DNA damage by CometChip microscopy (HepG2 cells [1]): greater levels of DNA damage | TMRM depletion (mitochondrial membrane integrity) (HepG2 cells [4]): greatest depletion | 8-OhDG levels in cell supernatant (HepG2 cells [5]): highest increase | γ-H2AX levels (double-stranded DNA breaks) (HepG2 cells [6]): greatest | Observed median (range) of plasma AUC0-24 [2, 10]: 14.5 (3.0, 27.8) uM*hr | Thiol depletion (free thiol availability) (HepG2 cells [7]): greatest

NNC(=O)c1ccncc1 [Isoniazid]
Overall cytotoxicity (HepG2 cells [8]): no appreciable cytotoxicity | Unadjusted regression coefficient (95% CI), isoniazid log AUC0-24 vs urine oxidative DNA damage ([9]; HIV/TB patients, first-line TB therapy): 0.474 (-0.272, 1.221) | Unadjusted regression coefficient (95% CI), isoniazid Cmax (mg/L) vs urine oxidative DNA damage ([9]; HIV/TB patients, first-line TB therapy, urine 8-OHdG normalized to creatinine): 0.153 (-0.060, 0.366) | Adjusted regression coefficient (95% CI), isoniazid Cmax (mg/L) vs urine oxidative DNA damage ([9]; adjusted for body weight, creatinine clearance, GSTA2 genotype): 0.241 (0.020, 0.462) | AUC(0-t) ([2]; plasma, 10 isoniazid-treated patients, oral isoniazid 300 mg, noncompartmental, extrapolated over 24-h dosing interval, read-out: Observed median (range) of plasma AUC0-24): 60.5 µM·h
